Measurements taken from patent US9925170B2, “Methods of adipolysis and compositions useful therein” (priority 2015, dated 2018).

What was measured:
Human mature adipocytes = tested on: Human mature adipocytes
Procedure: Human pre-adipocytes (Lonza, Allendale, N.J.) were differentiated into mature adipocytes according to the supplier's instructions. Mature adipocytes in maintenance medium (Zen-Bio, Research Triangle Park, N.C.) were treated with different statins (Sigma, St. Louis, Mo.) for 7 days over a range of concentrations. Cell viability was measured at Day 1, 3, 5, and 7 using the ALAMARBLUE® assay (Invitrogen, Carlsbad, Calif.).

subcutaneous fat layer = details: 25 mg/kg intraperitoneal, 28 consecutive days (FIG. 6)
Procedure: Three untreated mice were used as reference animals. On Day 29, all animals were sacrificed and histopathological examination of the dorsal lumbar skin was performed. […] The severity of subcutaneous fat atrophy was scored on a scale ranging from normal (score of “0”) to severe (score of “4”).

[1] = tested on: subcutaneous adipose tissue; experiment: Daily topical or intraperitoneal administration in mice, histopathology of mid-scapular skin; format: in vivo, Female BALB/cAnNCrl mice
Procedure: Female BALB/cAnNCrl mice were divided into five groups of three mice/group and seven groups of eight mice/group. Mice in Group 1 were age-matched, untreated pre-study reference animals, and mice in Group 2 were age-matched, untreated Day 29 reference animals. […] Mid-scapular skin was collected from each animal and histopathological examination was performed to determine the effects of the test articles on subcutaneous adipose deposition and skin thickness.

[2] = intraperitoneal 25 mg/kg, 28 days

Compound: CC(C)n1c(/C=C/C(O)CC(O)CC(=O)O)c(-c2ccc(F)cc2)c2ccccc21 (stereo not drawn) [fluvastatin]
- dose dependence of cytotoxic effect (Human mature adipocytes): dose-dependent cytotoxic effect

Compound: CC[C@H](C)C(=O)O[C@H]1C[C@@H](C)C=C2C=C[C@H](C)[C@H](CC[C@@H]3C[C@@H](O)CC(=O)O3)[C@H]21 [lovastatin]
- fat layer atrophy in skin sections (subcutaneous fat layer): significant fat layer atrophy
- atrophy of subcutaneous adipose tissue [1, 2]: present in skin of all mice
- atrophy of subcutaneous adipose tissue ([1]; topical 0.5%, 28 days): Only one mouse
- atrophy of subcutaneous adipose tissue ([1]; topical 2.5%, 7 days): present in all mice
- atrophy of subcutaneous adipose tissue ([1]; topical 2.5%, 28 days): present in all mice

Compound: Cc1ccc(N(CC2=NCCN2)c2cccc(O)c2)cc1 [phentolamine]
- atrophy of subcutaneous adipose tissue [1, 2]: present in skin of all mice
- atrophy of subcutaneous adipose tissue ([1]; topical 0.5%, 7 days): present in mice
- atrophy of subcutaneous adipose tissue ([1]; topical 2.5%, 7 days): present in mice
- atrophy of subcutaneous adipose tissue ([1]; topical 2.5%, 28 days): in one mouse

Compound: CC(=O)[C@H]1CC[C@H]2[C@@H]3CC=C4C[C@@H](O)CC[C@]4(C)[C@H]3CC[C@]12C [pregnenolone]
- atrophy of subcutaneous adipose tissue [1, 2]: present in skin of all mice
- atrophy of subcutaneous adipose tissue ([1]; topical 0.5%, 28 days): present in a one mouse
